Laboratory results reported in patent US10513534B2, “2′-chloro nucleoside analogs for HCV infection” (priority 2012, dated 2019).

What was measured:
[1] = Stability in simulated gastric fluid; assay type: in vitro ADME; details: simulated gastric fluid with pepsin, 100 μM, 2 hours, 37° C.
Protocol: Stability in Simulated Gastric and Intestinal Fluids: Simulated gastric and intestinal fluids containing pepsin and pancreatin respectively were prepared according to the U.S. Pharmacopoeia USP291 procedure(www.pharmacopeia.cn/v29240/usp29nf24s0_ris1s126.html). Each test compound (final concentration 100 μM) was incubated in duplicate in the appropriate fluid for 2 hours at 37° C. The samples were quenched with […] cold acetonitrile, vortexed for 30 seconds and then centrifuged at 16100×g for 10 min. The supernatants were analyzed by HPLC on a C-18 column with UV detection at 252 nm. The time zero samples were prepared by adding SGF or SIF fluid to the quenching solvent followed by the test compound. Stability of the compound was determined by peak area of the test compound after incubation and calculated as percent of the peak area observed at time zero.

[2] = Stability in fresh whole blood; assay type: in vitro ADME; details: human whole blood, 0.5 μM
Protocol: Stability of the test compounds was determined in fresh human whole blood with K2EDTA as the anticoagulant (stored refrigerated at 2-8° C. and used within 7 days of receipt). The experiment was conducted with three replicates for each time point. Whole blood, pre-incubated at 37° C. for 10-15 minutes, was fortified with a solution of test compound for a final concentration of 0.5 μM and mixed for 30 sec. At intervals (0, 0.5, 1 and 2 hr), three […] aliquots were combined with 200 μL (each) of an ice-cold solution of the internal standard (carbutamide 500 ng/mL in acetonitrile). The samples were vortexed for 30 sec and then centrifuged at 16100×g for 5 min. The supernatant was analyzed by LC-MS/MS. The MS peak area ratio of the test compound versus the internal standard was calculated and percent unchanged test compound was calculated for each time point using this ratio.

[3] = Stability in liver microsomes; assay type: in vitro ADME; details: human liver microsomes 1.0 mg/mL, 10 μM, NADPH, 60 min
Protocol: (§1) Stability of test compounds were determined in human liver and intestinal microsomes in duplicate for each matrix. Pooled liver and intestinal microsomal proteins (1.0 mg/mL), suspended in incubation buffer (100 mM potassium phosphate, pH 7.4, 5 mM MgCl2, and 0.1 mM EDTA), were preincubated for 5 min at 37° C. with 10 μM of a test compound from a 10 mM stock solution in DMSO (final DMSO concentration was 0.1%); the reaction was initiated by the addition of NADPH (3 mM final concentration). At specific times (0 and 60 min), 0.1 mL samples were taken and the reaction terminated by the addition of 4 volumes of stop solution (acetonitrile with 500 ng/mL carbutamide as an internal standard). The samples were vortexed for 30 sec and then centrifuged at 16000×g for 10 min. 100 μL of supernatants were transferred to 96 deep-well plates preloaded with 100 μL distilled water and analyzed after mixing by LC-MS/MS. The MS peak area ratio of the test compound versus the internal standard was calculated and percent unchanged test compound over 60 minutes was calculated using this ratio.

[4] = Stability in intestinal microsomes; assay type: in vitro ADME; details: human intestinal microsomes 1.0 mg/mL, 10 μM, NADPH, 60 min
Protocol: as §1

[5] = system: fresh mouse hepatocytes; experiment: Release of active metabolite in fresh mouse hepatocytes; assay type: in vitro ADME; details: 10 μM
Protocol: Plates of fresh human and mouse hepatocytes were obtained on ice. The medium was removed and replaced with hepatocyte culture medium (William's E supplemented with penicillin-streptomycin, 1% L-glutamine, 1% insulin-transferrin-selenium and 0.1 μM Dexamethasone (Invitrogen) or with Invitro GRO HI medium complemented with Torpedo antibiotics (Celsis)). Cells were left overnight in an incubator at 37° C. to acclimatize to culture and the medium.
Hepatocyte incubations were conducted at a final volume of 0.5 mL hepatocyte culture medium/well (0.8 million cells/well for human and 0.5 million cells/well for mouse; 12 well plate no overlay, collagen coat). Culture medium from overnight incubation of cells was removed and replaced with fresh medium, pre-warmed to 37° C., containing 10 μM of test compound from a stock solution in DMSO (final DMSO concentration was 0.1%). At each specific time point, incubation medium was removed and cell monolayers were carefully washed two times with ice-cold PBS. Following the last wash, all PBS was carefully removed and 1.0 mL of extraction solution (ice-cold 70% methanol/30% water) added. Cells were scraped off and suspended in the extraction solution, transferred to 2 mL polypropylene microfuge tubes and intracellular contents extracted overnight at −20° C.
After the overnight treatment the cellular extracts were prepared by centrifugation at 16,000×g for 10 min to remove cellular debris. The remaining sample was then dried using a refrigerated centrivap concentrator. Dry extracts were reconstituted in 1000 μL of HPLC-grade water and centrifuged at 16,000×g for 10 min. Aliquots (100 μL each) of the supernatant were transferred into a 96 well plate and internal standard (4 ng/mL final concentration) was added as the internal standard (IS) for LC-MS/MS analysis.
The incubation time points were 6, 24 and 48 hours for human hepatocytes and 1, 4, 8, 12 and 24 hours for mouse hepatocytes.

[6] = Liver triphosphate pharmacokinetics after single oral dose in cynomolgus monkeys; assay type: in vivo; details: 6 hours post dose, 10 mg/kg oral, normalized to 1 μmol/kg dose
Protocol: For each compound, a single oral dose at 10 mg/kg in PEG 200 (dose volume 3 mL/kg) was administered to cynomolgus monkeys. Untreated animals were used for the collection of control liver. Plasma samples were collected at 0.5, 1, 2, 4, 6, 8, 12 and 24 hours for compound 37, diastereomer 2.
Liver samples were analyzed for the relevant nucleoside triphosphate by LC-MS/MS. […] Appropriate internal standard solution was added to the homogenate followed by neutralization with 20% ammonium hydroxide solution and addition of 500 μL 1% formic acid. The tissue samples were extracted by weak anion exchange solid phase extraction (SPE). Post extraction, the eluates were evaporated under nitrogen, followed by reconstitution before injection onto the LC-MS/MS system.

[7] = system: Zluc cells; experiment: Cytotoxicity evaluation, CellTiter-Blue Cell Viability Assay; details: Zluc cells, CellTiter-Blue

## CC(C)OC(=O)[C@H](C)NP(=O)(OC[C@H]1O[C@@H](n2ccc(=O)[nH]c2=O)[C@](C)(Cl)[C@@H]1O)Oc1ccccc1 (single isomer, unassigned) [Compound 40ii Diastereomer 2]
[1]
  SGF stability (percent remaining): ++++ (75% < ++++)
[2]
  WB_Human (37° C.; 2 hr) stability (percent remaining): ++++ (75% < ++++)
[3]
  HLM (1 hr) stability (percent remaining): ++ (25% < ++ ≤ 50%)
[4]
  HIM (1 hr) stability (percent remaining): ++++ (75% < ++++)
[5]
  MsH AUC: ++++ (1500 < ++++)
  MsH Cmax: +++ (50 < +++ ≤ 100)
[6]
  Nucleoside triphosphate in Liver C6: ++++ (100 < ++++)
[7]
  CC50: > 50 µM
